Earlier results on one molecule are cited in patent US12527813B2, “Methods to stabilize and reverse atherosclerotic lesions by sulfated polysaccharides” (Calroy Health Sciences, LLC, priority 2017, dated 2026).

The subject of the series is lipid-rich necrotic core. Conditions: 24 months.

`CC(C)c1nc(N(C)S(C)(=O)=O)nc(-c2ccc(F)cc2)c1/C=C/[C@@H](O)C[C@@H](O)CC(=O)O` [rosuvastation]: the “lumen size and artery stenosis change” value is given as “virtually no change”. In addition, the “lipid-rich necrotic core reduced, low dose” value (5 mg/day) was 27%. The “lipid-rich necrotic core reduced, all patients” value (33 patients, low or high dose) was “about 25%”. For the same molecule, for the setting “40/80 mg/day”, the “lipid-rich necrotic core reduced, high dose” value is on record as 19%.
